Drawing on publication PMC11587516 (ACS Chemical Neuroscience, 2024), this text covers IC50 and inhibition for one compound.

The target in this assay is T1, hGAT2 (Homo sapiens, UniProt Q9NSD5).
T1 construct: expressed in transfected cells
T1 sequence (Q9NSD5 1-602): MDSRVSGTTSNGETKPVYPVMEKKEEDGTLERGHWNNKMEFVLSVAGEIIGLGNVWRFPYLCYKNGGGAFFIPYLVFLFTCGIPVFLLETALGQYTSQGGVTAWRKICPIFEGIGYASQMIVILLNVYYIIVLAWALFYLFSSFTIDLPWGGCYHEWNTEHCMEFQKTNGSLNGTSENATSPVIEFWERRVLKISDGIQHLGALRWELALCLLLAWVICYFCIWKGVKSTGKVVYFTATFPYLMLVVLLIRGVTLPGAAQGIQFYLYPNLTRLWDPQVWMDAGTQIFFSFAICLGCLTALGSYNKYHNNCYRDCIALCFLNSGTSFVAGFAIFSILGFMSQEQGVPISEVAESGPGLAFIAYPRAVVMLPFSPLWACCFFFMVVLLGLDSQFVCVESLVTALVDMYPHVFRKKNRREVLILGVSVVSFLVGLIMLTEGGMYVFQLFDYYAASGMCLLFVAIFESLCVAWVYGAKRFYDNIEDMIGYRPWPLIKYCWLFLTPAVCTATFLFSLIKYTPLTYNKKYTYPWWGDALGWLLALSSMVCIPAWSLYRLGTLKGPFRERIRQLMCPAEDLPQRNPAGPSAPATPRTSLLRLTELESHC
Kind of assay: [3H]GABA uptake assay, CHO cells stably expressing hGAT2. The assay is classed as cell-based.

In turn, `NC12CC(C(=O)O)(C1)C2` [Compound 9] returned an IC50 above 100 µM. The inhibition at 100 µM (CHO, read-out: inhibition of GABA uptake) is around 25%.
